In test [1] the test system is HepG2 cells. The experiment in a line: Phase contrast microscopy of morphological changes in HepG2 cells. It counts as cell-based, human. As for the experimental part: FIG. 2A is a graph comparison of IC50 of Uttroside B in a panel of cancer cells of different origin. The cancer cell lines HeLa, A375, HepG2, MDA-MB-231, HL 60, A549 and HCT116 were treated with Uttroside B as indicated, incubated for 72 h and the cell viability was assessed by MTT assay. FIG. 2B is a graph showing dose dependent effect of Uttroside B in the liver cancer cell lines and in normal immortalized hepatocytes. The liver cancer cell lines HepG2, Hep3B, SKHEP-1, Huh-7 and normal hepatocytes (Chang liver), were treated with Uttroside B incubated for 72 h and the cell viability was assessed by MTT assay. FIG. 2C is a graph comparison of IC50 of Uttroside B with sorafenib. HepG2 cells were treated with Uttroside B as indicated, incubated for 72 h, and the cell viability was assessed by MTT assay. FIG. 2D is an image of the morphological changes induced by Uttroside B in HepG2 cells. […] FIG. 2E is an image showing Uttroside B inhibits the clonogenic potential of HepG2 cells. HepG2 cells were treated with different concentrations of Uttroside B for 72 h and the clonogenic assay was performed. FIG. 2F is a graph comparison of efficacy of Uttroside B in inhibiting the clonogenic potential of HepG2 cells. The clones developed were counted and plotted as a graph. Colony containing more than four cells was counted as one clone. […]

For test [2], the system named is autophagy related proteins in HepG2 cells. Put plainly: Western blot of autophagy related proteins in HepG2 cells. It counts as cell-based, human. The settings on record: time dependent. As to the method: Western blot analysis. Approximately 0.5×10^6 cells were grown on 60 mm culture plates and exposed to drugs as indicated for the desired time. The cells were then scraped out, washed in ice cold 1× PBS and pelleted down at 13000 rpm for 2 min. The pelleted cells were suspended in 150 μL of ice-cold whole cell lysis buffer[(20 mMTris of pH 7.4, 250 mM NaCl, 2 mM EDTA, 0.1% Triton, 1 mM DTT (1,4-dithiothreitol), 0.5 mM PMSF, 4 mM sodium orthovanadate, aprotinin (5 mg m/L) and leupeptin (5 mg m/L)] and kept in ice for 30 min, with intermittent vortexing every 5 min. After incubation, the lysate was centrifuged at 13000 rpm for 10 min at 4° C. and the supernatant was collected. The total protein content in the lysate was estimated by Bradford's method, and was then denatured by boiling with 5× loading dye before separating the proteins by SDSpolyacrylamidegel electrophoresis (SDS-PAGE). […]

As for `C[C@H](CC[C@@]1(O)O[C@H]2C[C@H]3[C@@H]4CC[C@H]5C[C@@H](O[C@@H]6O[C@H](CO)[C@H](O[C@@H]7O[C@H](CO)[C@@H](O)[C@H](O[C@@H]8OC[C@@H](O)[C@H](O)[C@H]8O)[C@H]7O[C@@H]7O[C@H](CO)[C@@H](O)[C@H](O)[C@H]7O)[C@H](O)[C@H]6O)CC[C@]5(C)[C@H]4CC[C@]3(C)[C@H]2[C@@H]1C)CO[C@@H]1O[C@H](CO)[C@@H](O)[C@H](O)[C@H]1O` [Uttroside B], the “morphological changes characteristic of apoptosis” value in test [1] (72 h, dose dependent) is “Nuclear condensation, membrane blebbing and formation of apoptotic bodies”. The vacuole formation result in test [1] (HepG2, 24 h) is on record as “induces vacuole formation”. Also, in test [2], the “expression of autophagy related proteins, HepG2” value is “induces up-regulation of all autophagy related proteins in a time dependent manner”.

Source of the values: US11607422B2, “Uttroside B and derivatives thereof as therapeutics for hepatocellular carcinoma” (Rajiv Gandhi Centre for Biotechnology, an Autonomous …, priority 2016, dated 2023).
